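Each compound was tested at five concentrations against cells in 96-well plates for 48 hours. GI50 is the concentration that inhibits growth by half.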 The source made the active and inactive calls. Cut-off read from the data, not from the text of the source: active = GI50 up to about 1.1 µM and inactive = higher.
Assays:
Assay in all cases: DTP human tumour cell line panel, 48 h
KM-20L2 = tested on: KM-20L2
DMS-273 = tested on: DMS-273
LXFL 529 = tested on: LXFL 529
DLD-1 = tested on: DLD-1
DMS-114 = tested on: DMS-114
RXF 631 = tested on: RXF 631
SNB-78 = tested on: SNB-78
XF498 = tested on: XF498
HOP-18 = tested on: HOP-18

Row | SMILES | GI50 (KM-20L2) | GI50 (DMS-273) | GI50 (LXFL 529) | GI50 (DLD-1) | GI50 (DMS-114) | GI50 (RXF 631) | GI50 (SNB-78) | GI50 (XF498) | GI50 (HOP-18)
1 | O=C(CO[N+](=O)[O-])OC/C=C/c1ccccc1 | > 100 µM (inactive) | > 100 µM (inactive) | > 100 µM (inactive) | > 100 µM (inactive) | > 100 µM (inactive) | – | – | – | –
2 | CC1CC[C@@]23CCC4(C)[C@@](C=CC5[C@@]6(C)CCC(=O)C(C)(C)C6CC[C@]54C)(OC2=O)[C@@H]3[C@H]1C (stereo partly specified) | 15.4 µM (inactive) | – | 9.89 µM (inactive) | 19.3 µM (inactive) | 6.46 µM (inactive) | 21.1 µM (inactive) | 20 µM (inactive) | 15.3 µM (inactive) | –
3 | CC1(C)CCOC(Sc2ccccc2)C1 (stereo unspecified) | 47.4 µM (inactive) | 28.2 µM (inactive) | > 100 µM (inactive) | > 100 µM (inactive) | 21.3 µM (inactive) | – | > 100 µM (inactive) | > 100 µM (inactive) | –
4 | COC(=O)CC1C[C@H](C#N)N(C(=O)c2ccccc2)C[C@@H]1CC[N+](=O)[O-] (stereo partly specified) | > 100 µM (inactive) | > 100 µM (inactive) | > 100 µM (inactive) | > 100 µM (inactive) | – | – | > 100 µM (inactive) | > 100 µM (inactive) | > 100 µM (inactive)
5 | O=C(c1ccc(Cl)cc1Cl)C1[C@H]2C(=O)N(c3ccc(Cc4ccc(N5C(=O)[C@@H]6ON(c7ccccc7)C(C(=O)c7ccc(Cl)cc7Cl)[C@@H]6C5=O)cc4)cc3)C(=O)[C@H]2ON1c1ccccc1 (stereo partly specified) | > 50 µM (inactive) | > 50 µM (inactive) | > 50 µM (inactive) | > 50 µM (inactive) | > 50 µM (inactive) | > 50 µM (inactive) | > 50 µM (inactive) | – | > 50 µM (inactive)
6 | Cn1c(=O)nc2n(-c3cccc(F)c3)c3ccccc3nc-2c1=O | 12.3 µM (inactive) | 13.8 µM (inactive) | 37.8 µM (inactive) | 25.3 µM (inactive) | – | – | 23.5 µM (inactive) | – | 34.1 µM (inactive)
7 | CCOC(=O)c1oc2ccc([N+](=O)[O-])c3c2c1CCC3 | > 100 µM (inactive) | 58.3 µM (inactive) | > 100 µM (inactive) | > 100 µM (inactive) | 36.9 µM (inactive) | 37.2 µM (inactive) | 34.8 µM (inactive) | 20.7 µM (inactive) | 6.55 µM (inactive)
8 | Sc1ncnc2nc[nH]c12 [MERCAPTOPURINE ANHYDROUS] | 1.92 µM (inactive) | 0.426 µM (active) | 653 µM (inactive) | 2.08 µM (inactive) | 1.67 µM (inactive) | – | 90.4 µM (inactive) | 5.04 µM (inactive) | 192 µM (inactive)
9 | COc1cccc(/C=C/c2cc(OC)c(OC)c(OC)c2)c1 | 19.3 µM (inactive) | 27.8 µM (inactive) | 61.7 µM (inactive) | 18.3 µM (inactive) | 24.9 µM (inactive) | 23.7 µM (inactive) | 21.8 µM (inactive) | 33.7 µM (inactive) | –
10 | CC(/C(=N\Nc1ccccc1)c1ccc(O)cc1)C1C(=O)Oc2ccccc21 (stereo unspecified) | > 100 µM (inactive) | > 100 µM (inactive) | > 100 µM (inactive) | > 100 µM (inactive) | > 100 µM (inactive) | – | – | – | –
11 | CC(=O)NC(C=O)C(O[C@H](C)C(=O)NC(C)C(=O)NC(CCC(N)=O)C(=O)OCc1ccccc1)C(O)C(O)COC(=O)CCNc1c2ccccc2nc2cccc([N+](=O)[O-])c12 (stereo partly specified) | 2 µM (inactive) | 2.69 µM (inactive) | 1.79 µM (inactive) | 3.41 µM (inactive) | 2.81 µM (inactive) | – | 2.58 µM (inactive) | 1.83 µM (inactive) | 4.3 µM (inactive)
12 | CC1C=C(CCCCCCCCCCCC[C@@H](O)[C@@H]2CC[C@@H]([C@@H]3CC[C@@H](C(O)CCCCCCCCCCCCC4=C[C@H](C)OC4=O)O3)O2)C(=O)O1 (stereo partly specified) | > 95.5 µM (inactive) | > 41 µM (inactive) | 17.1 µM (inactive) | > 100 µM (inactive) | 0.0697 µM (active) | – | – | 17.9 µM (inactive) | > 100 µM (inactive)
13 | COc1ccc(C2c3cc(OC)c(OC)cc3C(Cc3ccc([N+](=O)[O-])cc3)C2c2ccc([N+](=O)[O-])cc2)cc1OC (stereo unspecified) | > 100 µM (inactive) | > 100 µM (inactive) | > 100 µM (inactive) | > 100 µM (inactive) | > 100 µM (inactive) | > 100 µM (inactive) | > 100 µM (inactive) | 48.9 µM (inactive) | –
14 | C=C1C(=O)O[C@@H]2C[C@@H](C)[C@@H]3C=CC(=O)[C@@]3(C)[C@@H](OC(=O)CC(=O)O[C@H]3[C@@H]4C(=C)C(=O)O[C@@H]4C[C@@H](C)[C@@H]4C=CC(=O)[C@]43C)[C@H]12 | 0.0771 µM (active) | 0.0336 µM (active) | < 0.0117 µM (active) | < 0.01 µM (active) | 0.0312 µM (active) | 0.0989 µM (active) | 0.0153 µM (active) | 0.0213 µM (active) | 0.11 µM (active)
15 | CC(=O)OCC1OC(N2C(=O)[C@@H](Oc3ccccc3)[C@H]2/C=C/c2ccccc2)C(OC(C)=O)C(OC(C)=O)C1OC(C)=O (stereo partly specified) | > 100 µM (inactive) | > 100 µM (inactive) | > 100 µM (inactive) | > 100 µM (inactive) | > 100 µM (inactive) | – | > 100 µM (inactive) | > 100 µM (inactive) | –
16 | COCC(O)Cn1ccnc1[N+](=O)[O-] (stereo unspecified) [MISONIDAZOLE] | > 100 µM (inactive) | > 100 µM (inactive) | – | – | > 100 µM (inactive) | – | > 100 µM (inactive) | > 100 µM (inactive) | –
17 | CN1C(=O)CC(CC(=O)C2CCCCC2=O)CC1=O (stereo unspecified) | > 100 µM (inactive) | > 100 µM (inactive) | > 100 µM (inactive) | > 100 µM (inactive) | > 100 µM (inactive) | – | > 100 µM (inactive) | > 100 µM (inactive) | > 100 µM (inactive)
18 | O=C(O)CSc1nnc(COc2ccccc2)n1-c1ccccc1 | > 100 µM (inactive) | > 100 µM (inactive) | > 100 µM (inactive) | > 100 µM (inactive) | > 100 µM (inactive) | – | > 100 µM (inactive) | – | –
19 | CN(C)/C=N/c1nc2ncn(CCOC(=O)c3ccccc3)c2c(=O)[nH]1 | > 100 µM (inactive) | > 100 µM (inactive) | > 100 µM (inactive) | > 100 µM (inactive) | > 100 µM (inactive) | > 100 µM (inactive) | > 100 µM (inactive) | – | > 100 µM (inactive)
20 | COc1ccc2[nH]c3c(c2c1)[C@H](c1ccccc1)C[C@@H]1C(=O)N(c2ccccc2)C(=O)[C@H]31 | 64.9 µM (inactive) | 47.8 µM (inactive) | 43.2 µM (inactive) | 59.7 µM (inactive) | 29.1 µM (inactive) | 45.1 µM (inactive) | 44.5 µM (inactive) | 23 µM (inactive) | 2.54 µM (inactive)
21 | COC(CN1C(=O)c2cccc3cccc(c23)C1=O)OC | > 100 µM (inactive) | 48.9 µM (inactive) | 62.7 µM (inactive) | > 100 µM (inactive) | 78 µM (inactive) | – | > 100 µM (inactive) | 23.1 µM (inactive) | > 100 µM (inactive)
22 | CN1Cc2c(nc(-c3ccc(Br)cc3)c[n+]2[O-])N(C)C1 | > 100 µM (inactive) | > 100 µM (inactive) | > 100 µM (inactive) | > 100 µM (inactive) | > 100 µM (inactive) | – | > 100 µM (inactive) | > 100 µM (inactive) | > 100 µM (inactive)
